Here are results for 29 compounds from US8389557B2, “Triazole derivatives useful as Axl inhibitors” (Rigel Pharmaceuticals, Inc., priority 2005, dated 2013).

What is called melting point is the temperature of the solid-liquid transition. As a reminder, the IC50 is the concentration that gives 50% inhibition.

One data set has as its target T1, Axl (Homo sapiens, UniProt P30530).
T1 construct: endogenous in cells; host or cells: HeLa cells
T1 sequence (P30530 26-894): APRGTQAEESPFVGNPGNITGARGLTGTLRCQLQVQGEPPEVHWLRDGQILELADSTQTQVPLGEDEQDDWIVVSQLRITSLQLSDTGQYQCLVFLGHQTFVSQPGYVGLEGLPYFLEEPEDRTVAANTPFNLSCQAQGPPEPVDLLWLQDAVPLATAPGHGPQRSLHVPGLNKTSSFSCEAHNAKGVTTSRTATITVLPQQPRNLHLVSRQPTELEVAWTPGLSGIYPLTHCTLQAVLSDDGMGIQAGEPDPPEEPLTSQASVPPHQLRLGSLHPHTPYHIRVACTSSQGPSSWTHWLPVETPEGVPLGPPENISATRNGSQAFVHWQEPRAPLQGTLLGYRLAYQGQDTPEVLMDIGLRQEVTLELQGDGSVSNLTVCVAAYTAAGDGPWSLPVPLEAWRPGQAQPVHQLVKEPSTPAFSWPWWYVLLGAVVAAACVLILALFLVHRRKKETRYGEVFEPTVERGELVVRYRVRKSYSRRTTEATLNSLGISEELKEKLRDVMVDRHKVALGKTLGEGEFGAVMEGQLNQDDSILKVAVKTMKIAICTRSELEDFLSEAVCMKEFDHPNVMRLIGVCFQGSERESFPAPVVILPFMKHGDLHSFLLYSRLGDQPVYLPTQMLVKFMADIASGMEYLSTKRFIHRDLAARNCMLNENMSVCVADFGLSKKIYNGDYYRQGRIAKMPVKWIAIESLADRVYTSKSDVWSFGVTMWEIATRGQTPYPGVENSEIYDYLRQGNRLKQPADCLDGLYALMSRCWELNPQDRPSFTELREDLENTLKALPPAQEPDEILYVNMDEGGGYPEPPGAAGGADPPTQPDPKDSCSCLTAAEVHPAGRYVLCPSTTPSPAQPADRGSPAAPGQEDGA
Kind of data set: Phospho-Akt in-cell Western assay (inhibition of Axl activity). The format is cell-based. A digest of the protocol:
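HeLa cells on poly-L-lysine, starved 24 h in 0.5% FCS DMEM with Axl/Fc 500 ng/mL, pre-treated with compound 1 h at 37° C. Axl stimulated 5 min by anti-Axl/anti-mouse antibody cross-linking. Fixed cells probed with anti-phospho-Akt and HRP secondary, chemiluminescence read.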

[1] abbreviates: inhibition of Axl activity, Table 1.
Setting [2] is: inhibition of Axl activity, phospho-Akt in-cell Western assay, Table 1.
Setting [3] is: Table 3, Hela cells, Axl antibody cross-linking stimulation, phospho-Akt chemiluminescence.

Molecules are shown by their SMILES. Counter-ions that a name gives are not always drawn. Where only a bound is given, the exact number is not on record here.

As for `Nc1nc(Nc2cccc(OCCN3CCOCC3)c2)nn1C(=O)c1ccccc1` (as salt: salt) [(Ia-26), 5-amino-3-[3-[2-(morpholin-4-yl)ethoxy]phenylamino]-1-phenylcarbonyl-1H-1,2,4-triazole, hydrogen chloride salt], the melting point was 236.6 to 242.1 °C. Turning to `Cc1ccc(C(=O)n2nc(Nc3cccc(OCC#N)c3)nc2N)cc1` [(Ia-5), 5-amino-3-[3-(cyanomethoxy)phenylamino]-1-(4-(methyl)phenyl)carbonyl-1H-1,2,4-triazole], the melting point was 236 to 241 °C. In turn, `Cc1ccccc1C(=O)n1nc(Nc2cccc(OCC#N)c2)nc1N` [(Ia-8), 5-amino-3-[3-(cyanomethoxy)phenylamino]-1-(2-(methyl)phenyl)carbonyl-1H-1,2,4-triazole] registered a melting point of 204.5 to 207.9 °C. For the same compound, the IC50 on Axl (setting [1]) is greater than 20000 nM. Regarding `Cc1cccc(C(=O)n2nc(Nc3cccc(OCC#N)c3)nc2N)c1` [(Ia-9), 5-amino-3-[3-(cyanomethoxy)phenylamino]-1-(3-(methyl)phenyl)carbonyl-1H-1,2,4-triazole], the melting point fell in the range of 220 to 224.4 °C. Besides, the IC50 on Axl (setting [1]) was greater than 20000 nM. The matching figures for `CC(C)Oc1ccc(C(=O)n2nc(Nc3ccc(OCc4ccccc4)cc3)nc2N)cc1` [(Ia-10), 5-amino-3-[4-(benzyloxy)phenylamino]-1-(4-(iso-propoxy)phenyl)carbonyl-1H-1,2,4-triazole]: 79 to 81 °C and greater than 20000 nM.

Take `CC(C)Oc1ccc(C(=O)n2nc(Nc3ccc(O)cc3)nc2N)cc1` [(Ia-11), 5-amino-3-[4-(hydroxy)phenylamino]-1-(4-(iso-propoxy)phenyl)carbonyl-1H-1,2,4-triazole]: the melting point was 229 to 234 °C. Also, the IC50 at Axl (setting [1]) was in the range of 1000 to 10000 nM. Compound `CC(C)Oc1ccc(C(=O)n2nc(Nc3ccc(OCC#N)cc3)nc2N)cc1` [(Ia-12), 5-amino-3-[4-(cyanomethoxy)phenylamino]-1-(4-(iso-propoxy)phenyl)carbonyl-1H-1,2,4-triazole] had a melting point of 182.9 to 186.1 °C. The same compound yielded an IC50 at Axl (setting [1]) of 1000 to 10000 nM.

`CC(C)Oc1ccc(C(=O)n2nc(Nc3cccc(O)c3)nc2N)cc1` [(Ia-13), 5-amino-3-[3-(hydroxy)phenylamino]-1-(4-(iso-propoxy)phenyl)carbonyl-1H-1,2,4-triazole]: the melting point fell in the range of 204.2 to 211.9 °C. This compound showed an IC50 on Axl (setting [1]) of 1000 to 10000 nM.

Turning to `CC(C)Oc1cccc(C(=O)n2nc(Nc3cccc(O)c3)nc2N)c1` [(Ia-16), 5-amino-3-[3-(hydroxy)phenylamino]-1-(3-(iso-propoxy)phenyl)carbonyl-1H-1,2,4-triazole], the melting point fell in the range of 211.3 to 214.8 °C. Further, the IC50 on Axl (setting [1]) was in the range of 1000 to 10000 nM. Compound `CC(C)Oc1cccc(C(=O)n2nc(Nc3cccc(OCc4ccccc4)c3)nc2N)c1` [(Ia-17), 5-amino-3-[3-(benzyloxy)phenylamino]-1-(3-(iso-propoxy)phenyl)carbonyl-1H-1,2,4-triazole] gave a melting point of 131.1 to 132.4 °C. This compound also gave an IC50 on Axl (setting [1]) greater than 20000 nM. For `Cc1cccc(C(=O)n2nc(Nc3cccc(OCC(=O)NCCN4CCOCC4)c3)nc2N)c1` [(Ia-18), 5-amino-1-(3-methylphenyl)carbonyl-3-[3-[2-(4-morpholinyl)ethylaminocarbonylmethoxy]phenyl]amino-1H-1,2,4-triazole], in that order: 145 to 147 °C and 1000 to 10000 nM. For `Cc1cccc(C(=O)n2nc(Nc3cccc(OCC(=O)N4CCN(C(=O)OC(C)(C)C)CC4)c3)nc2N)c1` [(Ia-19)], in that order: 206 to 208 °C and greater than 20000 nM. For `Cc1cccc(C(=O)n2nc(Nc3cccc(OCC(=O)N4CCNCC4)c3)nc2N)c1` [(Ia-20), 5-amino-1-(3-methylphenyl)carbonyl-3-[3-(piperazin-4-ylcarbonylmethoxy)phenyl]amino-1H-1,2,4-triazole], in that order: 169 to 171 °C and 1000 to 10000 nM.

The compound `CC(C)Oc1ccc(C(=O)n2nc(Nc3cccc(OCCN4CCOCC4)c3)nc2N)cc1` [(Ia-22)] had a melting point of 152 to 153.7 °C. For the same compound, the IC50 on Axl (setting [1]) was in the range of 1000 to 10000 nM.

Compound `CC(C)Oc1ccc(C(=O)n2nc(Nc3cccc(OCCC4OCCO4)c3)nc2N)cc1` [(Ia-24), 5-amino-3-[3-[2-(1,3-dioxolan-2-yl)ethoxy]phenylamino]-1-(4-(iso-propoxy)phenyl)carbonyl-1H-1,2,4-triazole] displayed a melting point of 144.4 to 145.4 °C. In addition, the IC50 against Axl (setting [1]) was 1000 to 10000 nM. `CC(C)Oc1ccc(C(=O)n2nc(Nc3cccc(OCc4ccccc4)c3)nc2N)cc1` [(Ia-25), 5-amino-3-[3-(benzyloxy)phenylamino]-1-(4-(iso-propoxy)phenyl)carbonyl-1H-1,2,4-triazole]: the melting point is 188.7 to 189.9 °C. Also, at Axl (setting [1]), the IC50 is greater than 20000 nM. The matching figures for `Cc1cccc(C(=O)n2nc(Nc3cccc(OCCN4CCOCC4)c3)nc2N)c1` [(Ia-27)]: 60 to 63 °C and 1000 to 10000 nM. At Axl (setting [2]), `Nc1nc(Nc2ccc(OCCN3CCCC3)cc2)nn1C(=O)c1ccc2c(c1)OCO2` [compound #16, 5-Amino-1-(1,3-benzodioxol-5-yl)carbonyl-3-[4-[2-(pyrrolidin-1-yl)ethoxy]phenylamino]-1H-1,2,4-triazole] showed a half-inhibitory concentration (IC50) of less than 1000 nM.

With `Nc1nc(Nc2ccc(OCCN3CCCC3)cc2)nn1C(=O)c1ccc2c(c1)OCCO2` [compound #17, 5-Amino-1-(1,4-benzodioxan-6-yl)carbonyl-3-[4-[2-(pyrrolidin-1-yl)ethoxy]phenylamino]-1H-1,2,4-triazole], the IC50 against Axl (setting [2]) was less than 1000 nM. The same measure, in the same setting: the value for `CC(C)(C)Oc1cccc(C(=O)n2nc(Nc3ccc(OCCN4CCCC4)cc3)nc2N)c1` [compound #18, 5-Amino-3-[4-[2-(pyrrolidin-1-yl)ethoxy]phenylamino]-1-(3-(tert-butoxy)phenyl)carbonyl-1H-1,2,4-triazole] was less than 1000 nM.

In the case of `COc1cc(OC)cc(C(=O)n2nc(Nc3ccc(OCCN4CCCCC4)cc3)nc2N)c1` [compound #19, 5-Amino-1-(3,5-(dimethoxy)phenyl)carbonyl-3-[4-[2-(piperidin-1-yl)ethoxy]phenylamino]-1H-1,2,4-triazole], at Axl (setting [2]), the IC50 is less than 1000 nM.

As for `CN(C)c1cccc(C(=O)n2nc(Nc3ccc(OCCCN4CCCC4)cc3)nc2N)c1` [compound #20, 5-Amino-1-(3-(dimethylamino)phenyl)carbonyl-3-[4-[3-(pyrrolidin-1-yl)propoxy]phenylamino]-1H-1,2,4-triazole], at Axl (setting [2]), the IC50 was less than 1000 nM. In turn, `COc1ccc(C(=O)n2nc(Nc3ccc(OCCN4CCCCC4)cc3)nc2N)cc1OC` [compound #21, 5-Amino-1-(3,4-(dimethoxy)phenyl)carbonyl-3-[4-[2-(piperidin-1-yl)ethoxy]phenylamino]-1H-1,2,4-triazole] registered an IC50 against Axl (setting [2]) of less than 1000 nM. Same read-out and setting: the value for `COc1cc(OC)cc(C(=O)n2nc(Nc3ccc(OCCN4CCCC4)cc3)nc2N)c1` [compound #22, 5-Amino-1-(3,5-(dimethoxy)phenyl)carbonyl-3-[4-[2-(pyrrolidin-1-yl)ethoxy]phenylamino]-1H-1,2,4-triazole] was less than 1000 nM; that for `Nc1nc(Nc2ccc(OCCN3CCCC3)cc2)nn1C(=O)c1ccc(OC(F)(F)F)cc1` [compound #23, 5-Amino-3-[4-[2-(pyrrolidin-1-yl)ethoxy]phenylamino]-1-(4-(trifluoromethoxy)phenyl)carbonyl-1H-1,2,4-triazole] was less than 1000 nM. The same measure, in the same setting: the value for `CC(C)(C)Oc1cccc(C(=O)n2nc(Nc3ccc(OCCCN4CCCC4)cc3)nc2N)c1` [compound #24, 5-Amino-3-[4-[3-(pyrrolidin-1-yl)propoxy]phenylamino]-1-(3-(tert-butoxy)phenyl)carbonyl-1H-1,2,4-triazole] was less than 1000 nM. Compound `Nc1nc(Nc2ccc(OCCN3CCCC3)cc2)nn1C(=O)c1ccc2nc[nH]c2c1` [compound #25, 5-Amino-1-(benzimidazol-6-yl)carbonyl-3-[4-[2-(pyrrolidin-1-yl)ethoxy]phenylamino]-1H-1,2,4-triazole] gave an IC50 on Axl (setting [3]) of 1000 to 10000 nM. With `CC(C)Oc1ccc(C(=O)n2nc(Nc3ccc(N4CCCCC4)cc3)nc2N)cc1` [compound #26, 5-Amino-1-(4-(iso-propoxy)phenyl)carbonyl-3-[4-(piperidin-1-yl)phenylamino]-1H-1,2,4-triazole], on Axl (setting [2]), the IC50 was 1000 to 10000 nM. On Axl (setting [3]), `Cc1ccc(C(=O)n2nc(Nc3ccc(OCCN4CCCC4)cc3)nc2N)cn1` [compound #28, 5-Amino-1-(6-(methyl)pyridin-3-yl)carbonyl-3-[4-[2-(pyrrolidin-1-yl)ethoxy]phenylamino]-1H-1,2,4-triazole] returned a half-maximal inhibitory concentration (IC50) of 1000 to 10000 nM.
